These results are taken from PubChem BioAssay (NCI).

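These data come from cells grown in 96-well plates and exposed to compound for 48 hours at five concentrations. At the GI50, growth is halved. Definition used: TGI = concentration required for complete inhibition of growth.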 Bounds are passed on as bounds.

Among the test systems are IGROV1 ovarian; M14 melanoma; EKVX NSCLC; TK-10 renal; DMS 114 small cell lung; SK-MEL-28 melanoma; RXF 393 renal; SNB-78 CNS.
Holding throughout (assay): NCI anticancer screen, dose series, 48 h

With `CSc1cnc2ccccc2c1Sc1c[nH]c2ccccc2c1=O`, the TGI in the test on IGROV1 ovarian was 43.1 µM; with M14 melanoma, 27.2 µM; with EKVX NSCLC it was more than 45.8 µM; with TK-10 renal, 91.4 µM; with DMS 114 small cell lung it was 32.9 µM; in the test on SK-MEL-28 melanoma, 43.5 µM. Further, the TGI is 37.6 µM in the test on RXF 393 renal and more than 100 µM with SNB-78 CNS.
As for `CC1=C(SC#N)S(=O)(=O)N(c2ccccc2)C(C)=C1SC#N`, the TGI in the test with IGROV1 ovarian was more than 100 µM; with TK-10 renal, more than 100 µM; in the test on DMS 114 small cell lung, 38.3 µM; in the test with SK-MEL-28 melanoma, more than 100 µM; in the test with RXF 393 renal, more than 100 µM; with SNB-78 CNS, more than 100 µM.
As to `COc1ccc(C2=Nc3ccccc3SC(C)C2)cc1OC` (configuration not stated), the TGI turned out to be 29.7 µM in the test with IGROV1 ovarian; 33 µM in the test on M14 melanoma; 56.5 µM in the test with EKVX NSCLC; 79.4 µM in the test on TK-10 renal; 34.8 µM in the test on DMS 114 small cell lung; 56.6 µM with SK-MEL-28 melanoma. The same molecule returned a TGI in the test with SNB-78 CNS of 66.7 µM.
In the case of `CCOC(=O)C1=C(O)c2ccc(C)cc2C(=O)C1=O`, the TGI in the test with IGROV1 ovarian, with M14 melanoma, in the test with EKVX NSCLC, in the test on TK-10 renal, in the test on DMS 114 small cell lung and with SK-MEL-28 melanoma was more than 100 µM in each case. Besides, the TGI in the test on RXF 393 renal and with SNB-78 CNS was more than 100 µM throughout.
In the case of `O=C(C(=O)n1ncc(Cl)c(Cl)c1=O)n1ncc(Cl)c(Cl)c1=O`, the TGI is more than 77.3 µM in the test on IGROV1 ovarian; more than 68.7 µM in the test with M14 melanoma; more than 83.8 µM in the test on EKVX NSCLC; 70.1 µM with TK-10 renal; more than 62.8 µM in the test on DMS 114 small cell lung; 59.3 µM in the test with SK-MEL-28 melanoma. For the same molecule, the TGI with SNB-78 CNS came out at 88.2 µM.
In the case of `CCOC(=O)/C(=C/c1cccc(Cl)c1)N(CC)CC`, the TGI in the test with IGROV1 ovarian, with M14 melanoma, in the test with EKVX NSCLC, in the test on TK-10 renal, in the test with DMS 114 small cell lung and with SK-MEL-28 melanoma was more than 100 µM throughout.
With `[N-]=[N+]=NCC(O)Cn1cnc2c(NC(=O)c3ccccc3)ncnc21` (configuration not stated), the TGI with IGROV1 ovarian, with M14 melanoma, in the test with EKVX NSCLC, with TK-10 renal, with DMS 114 small cell lung and with SK-MEL-28 melanoma was more than 100 µM in each case. The TGI in the test on RXF 393 renal and in the test with SNB-78 CNS was more than 100 µM in each case.
Consider `Cc1ccc(N=C[N-]c2ccc(C)cc2)cc1.Cc1ccc(N=C[N-]c2ccc(C)cc2)cc1.O=C([O-])C(F)(F)F.O=C([O-])C(F)(F)F.[OH3+].[OH3+].[Rh+2].[Rh+2]`, for which the GI50 in the test with IGROV1 ovarian is 26.6 µM; in the test with M14 melanoma, 26.2 µM; with EKVX NSCLC it was 50.2 µM; with TK-10 renal, 50.2 µM; with DMS 114 small cell lung, 38.4 µM; with SK-MEL-28 melanoma it was 14.1 µM. The GI50 with RXF 393 renal is 15.1 µM; in the test on SNB-78 CNS, 53.3 µM. For the same molecule, the TGI in the test with IGROV1 ovarian was 72.2 µM; in the test on M14 melanoma it was 70.3 µM; in the test with EKVX NSCLC, more than 100 µM; with TK-10 renal, more than 100 µM; with DMS 114 small cell lung, more than 100 µM; with SK-MEL-28 melanoma, 39.2 µM. The figures for the TGI in the test with RXF 393 renal and in the test with SNB-78 CNS were 33.1 µM and more than 100 µM, respectively.
`CCC(C)CC(C)CC(C)/C=C(\C)C1=C(C)CC(C)(O)O1` (configuration not stated): the TGI with IGROV1 ovarian, with M14 melanoma, with EKVX NSCLC, with TK-10 renal, in the test with DMS 114 small cell lung and with SK-MEL-28 melanoma was more than 100 µM each time. The TGI with RXF 393 renal and in the test with SNB-78 CNS was more than 100 µM throughout.
On to `C1CCCCc2nc3c(nc2CCC1)c1nc2c(nc1c1nc4c(nc31)CCCCCCCC4)CCCCCCCC2`, for which the TGI in the test on IGROV1 ovarian, with M14 melanoma, in the test on TK-10 renal, with SK-MEL-28 melanoma and with SNB-78 CNS was more than 100 µM each time.
`COC1=CC(C2c3cc4c(cc3[C@@H](Nc3ccc(F)cc3)C3COC(=O)[C@H]23)OCO4)=CC(=O)C1=O` (some centres not stated): the TGI in the test with IGROV1 ovarian is 44 µM; in the test with M14 melanoma, 36.3 µM; in the test on EKVX NSCLC, more than 59.1 µM; in the test with TK-10 renal, more than 63 µM; with SK-MEL-28 melanoma, 45.8 µM; with RXF 393 renal, more than 100 µM. Besides, the TGI with SNB-78 CNS was more than 96.4 µM.
With `COc1ccccc1NC(=O)C1=C(C)NC(C)=C(C(=O)Nc2ccccc2OC)C1/C=C/c1ccccc1`, the TGI in the test with IGROV1 ovarian, in the test on M14 melanoma, in the test with EKVX NSCLC, in the test on TK-10 renal, with DMS 114 small cell lung and in the test on SK-MEL-28 melanoma was more than 100 µM throughout. Besides, in the test on SNB-78 CNS, the TGI was more than 100 µM.
On to `Cc1cccc(C(=O)O)c1C(=O)c1cccc2ccccc12`, for which the TGI with IGROV1 ovarian, in the test on M14 melanoma, with EKVX NSCLC, in the test on TK-10 renal, in the test with DMS 114 small cell lung and in the test on SK-MEL-28 melanoma was more than 100 µM throughout. Further, the TGI in the test with RXF 393 renal and in the test on SNB-78 CNS was more than 100 µM each time.
With `Cc1ccc(NC(=O)C(=O)CC(=O)c2c(C)n([O-])c3ccccc3[n+]2=O)cc1C`, the TGI with IGROV1 ovarian, with M14 melanoma, in the test with EKVX NSCLC, in the test on TK-10 renal, with SK-MEL-28 melanoma and in the test with RXF 393 renal was more than 100 µM each time. This molecule displayed a TGI with SNB-78 CNS of more than 100 µM.
On to `CCCCCCCC1(c2ccc(N)cc2)CCC(=O)NC1=O` (configuration not stated), for which the TGI was more than 100 µM in the test on IGROV1 ovarian; more than 100 µM in the test with M14 melanoma; more than 100 µM with EKVX NSCLC; more than 100 µM in the test with TK-10 renal; 85.3 µM with DMS 114 small cell lung; more than 100 µM in the test with SK-MEL-28 melanoma. For the same molecule, the TGI with RXF 393 renal and in the test with SNB-78 CNS was more than 100 µM in each case.
On to `CC(C)c1cccc(C(C)C)c1N1C(=O)C(=O)C(c2nc3ccccc3o2)C(=O)C1=O`, for which the TGI is more than 100 µM with IGROV1 ovarian; more than 100 µM in the test on M14 melanoma; more than 100 µM in the test on EKVX NSCLC; more than 100 µM in the test on TK-10 renal; 84.5 µM in the test with DMS 114 small cell lung; more than 100 µM in the test with SK-MEL-28 melanoma. The TGI with RXF 393 renal and in the test with SNB-78 CNS was more than 100 µM in each case.
Turning to `Cc1ccc(C)c(N2C(=O)C(=O)C(c3nc4ccccc4o3)C(=O)C2=O)c1`, the TGI in the test on IGROV1 ovarian, in the test on M14 melanoma, with EKVX NSCLC, with TK-10 renal, with DMS 114 small cell lung and in the test on SK-MEL-28 melanoma was more than 100 µM in each case. The TGI with RXF 393 renal and with SNB-78 CNS was more than 100 µM each time.
